Results on 13 compounds are retold here after PMC6211275, “Phosphonate inhibitors of West Nile virus NS2B/NS3 protease” (Journal of Enzyme Inhibition and Medicinal Chemistry, 2018).

Where two headings read alike, the source gives them in different places. Peptide text beside a SMILES is read from it. * marks the point of attachment. Cbz = O=C(OCc1ccccc1)*; PhAc = O=C(Cc1ccccc1)*

As usually defined, the Ki is the dissociation constant of the complex between target and ligand, obtained from inhibition or displacement. As usually defined, the inhibition is how much of the control response was suppressed.

Test [1] relates to West Nile virus NS2B/NS3 protease. The conditions noted are these: cited from earlier work.
Another test deals with WNV NS2B/NS3 protease (West Nile virus, UniProt P06935). The test can be described thus: In vitro NS2B/NS3 protease inhibition (fluorescent substrate Pyr-RTKR-AMC, progress curve method). In kind it is biochemical. The conditions noted are these: for percent of inhibition: inhibitor 100 µM, after 30 min incubation at 37 °C. The protocol: For the initial screening, Cbz-protected aminophosphonates were assayed in 96 well microplates (Nunc™ F96 MicroWell™ White Polystyrene Plate) in the following protease buffer: 50 mM Tris, 1 mM Chaps, 20% glycerol, pH 8.5. WNV NS2B/NS3 protease (AnaSpec, Liege, Belgium; 20 nM) was pre-incubated with tested inhibitor (100 µM) in the protease buffer at 37 °C for 10 min prior an addition of the fluorescent substrate Pyr-RTKR-AMC (AnaSpec, Liege, Belgium; 20 µM). The progress of the reaction was monitored continuously (λex = 354 nm, λem = 442 nm) at 37 °C on a Spectra Max Gemini XPS spectrofluorometer (Molecular Devices, Sunnyvale, CA) for 30 min. […] In 96 well microplates narrowed concentration of inhibitors and constant substrate concentration (Pyr-RTKR-AMC, C = 20 µM, KM = 59 µM) were prepared. The enzyme solution was added and enzymatic reaction was monitored (Figure S1). Using a model for irreversible inhibition, in which the first order inactivation rate constant kobs is hyperbolic dependent from the inhibitor concentration Ki and k2/Ki values were calculated (equations (1–4) in supplementary material)[29]. Control progress curves in the absence of inhibitor were linear.
The inhibitory activity of the compounds was determined by the progress curve method. First the data from nonlinear progress curves with time dependent inhibitors were fit to eq.1 to obtain the first-order rate constant (kobs):
The second-order rate constants (k2/KI) and (KI)app values were calculated using hyperbolic regression according to equation 3: […]
KI values were calculated according to equation 3: […]

The mark [2] stands for this setting: tripeptide aldehydes, ref 11 (Stoermer et al.).

WNV NS2B/NS3 protease, sequence (P06935 1502-1680): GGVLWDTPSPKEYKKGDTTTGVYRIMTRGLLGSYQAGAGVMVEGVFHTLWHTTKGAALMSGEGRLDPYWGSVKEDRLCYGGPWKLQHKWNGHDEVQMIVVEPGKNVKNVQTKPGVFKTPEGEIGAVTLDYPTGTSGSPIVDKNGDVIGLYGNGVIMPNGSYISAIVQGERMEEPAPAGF
WNV NS2B/NS3 protease, sequence (P06935 1419-1466): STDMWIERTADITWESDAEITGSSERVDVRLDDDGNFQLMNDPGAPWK

On to `N=C(N)NCCC[C@@H](C=O)NC(=O)[C@H](CCCCN)NC(=O)[C@H](CCCCN)NC(=O)Cc1ccc(-c2ccccc2)cc1` [Compound 1], for which the Ki in test [1] (setting [2]) was 6 nM. For the compound `N=C(N)NCCC[C@@H](C=O)NC(=O)[C@H](CCCCN)NC(=O)[C@H](CCCCN)NC(=O)Cc1ccccc1` [Compound 2] (PhAc-Lys-Lys-Arg-aldehyde), the Ki in test [1] (setting [2]) was 9 nM. With `N=C(N)NC1CCC(CNC(=O)[C@H](CCCCN)NC(=O)[C@H](CCCCN)NC(=O)Cc2ccc(Cl)c(Cl)c2)CC1` (stereo partly shown) [Compound 3], the Ki in test [1] (ref 13 (Hammamy et al.)) is 130 nM.

As to `NCCCC[C@H](NC(=O)c1ccc(/C=C2\SC(=O)N(CC3CCCCC3)C2=O)cc1)C(=O)N[C@@H](CCCCN)C(=O)N[C@H](C(N)=O)c1ccccc1` [Compound 4], the Ki in test [1] (ref 14 (Bastos et al.)) was 750 nM. `N=C(N)SCCCC(NC(=O)OCc1ccccc1)P(=O)(Oc1ccccc1)Oc1ccccc1` (stereo not shown) [Compound 8] returned a percent of inhibition on WNV NS2B/NS3 protease (substrate Pyr-RTKR-AMC 20 µM) of 22%. Still for that read-out and setting: the result for `NC(=O)CCC(NC(=O)OCc1ccccc1)P(=O)(Oc1ccccc1)Oc1ccccc1` (stereo not shown) [Compound 11, Cbz-Gln^P(OPh)2] reads 15%; that for `N#Cc1ccc2cc(C(NC(=O)OCc3ccccc3)P(=O)(Oc3ccccc3)Oc3ccccc3)ccc2c1` (stereo not shown) [Compound 22], 2%.

For the compound `N=C(N)c1ccc2cc(C(NC(=O)OCc3ccccc3)P(=O)(Oc3ccccc3)Oc3ccccc3)ccc2c1` (stereo not shown) [Compound 23], at WNV NS2B/NS3 protease (read-out: percent of inhibition), the inhibition at 100 µM is 12%. On to `O=C(NC(c1ccc(-n2cccn2)cc1)P(=O)(Oc1ccccc1)Oc1ccccc1)OCc1ccccc1` (stereo not shown) [Compound 24, Benzyl ((4-(1H-pyrazol-1-yl)phenyl)(diphenoxyphosphoryl)methyl)carbamate], for which the percent of inhibition at WNV NS2B/NS3 protease (substrate Pyr-RTKR-AMC 20 µM) is given as 5%. The same measure, in the same setting: in the case of `O=C(NC(c1ccc(-n2cnc3ccccc32)cc1)P(=O)(Oc1ccccc1)Oc1ccccc1)OCc1ccccc1` (stereo not shown) [Compound 25] it was 4%; in that of `CN1CCN(c2ccc(C(NC(=O)OCc3ccccc3)P(=O)(Oc3ccccc3)Oc3ccccc3)cc2)CC1` (stereo not shown) [Compound 26], 3%; in that of `O=C(NC(c1ccc(N2CCOCC2)cc1)P(=O)(Oc1ccccc1)Oc1ccccc1)OCc1ccccc1` (stereo not shown) [Compound 27], 1%.

Turning to `N=C(N)NCCCC(C=O)NC(=O)C(CCCNC(=N)N)NC(=O)C(CCCCN)NC(=O)OCc1ccccc1` (stereo not drawn) [Compound 40, Cbz-Lys-Arg-Arg-H, reference compound] (Cbz-Lys-Arg-Arg-aldehyde; configuration not given here), on WNV NS2B/NS3 protease (Table 2, peptide phosphonates and reference aldehyde, substrate Pyr-RTKR-AMC 20 µM, read-out: Ki), the Ki is 120 ± 20 nM.
